Earlier results, collected in patent US20050244368A1, “Pre-endoscopic use of polyethylene glycol compositions” (priority 2004, published 2005).

Conditions: % of adult patients (Zwas et al., 1996)

O=P(O)(O)O [sodium phosphate]
colonic mucosal changes mimicking inflammatory bowel disease: up to 24%
